Here are results for 1 compound from paper PMC11240562 (2024).

The subject of experiment [1] is ODN1/ODN2 duplex (X = A, Y = T) (DNA, duplex) CTCAGAGTAAGG/CCTTACTCTGAG
In words: UV melting. To be noted: Na+ (150 mM NaCl, sodium phosphate); no significant Tm change; duplex 2 μM, CB[7] 4 μM; 10 mM phosphate pH 7.0.

Experiment [2] concerns ODN1/ODN2 duplex (X = ^Am2dA, Y = T) (DNA, duplex, ^Am2dA (N6-adenosine bearing 1-aminoadamantane via C2 linker) at 6 of strand 1) CTCAGAGTAAGG/CCTTACTCTGAG
In words: UV melting. As to conditions: Na+ (150 mM NaCl, sodium phosphate); destabilisation (Tm lowered by CB[7]); duplex 2 μM, CB[7] 4 μM; 10 mM phosphate pH 7.0.

For experiment [3], the system named is ODN1/ODN2 duplex (X = ^Am3dA, Y = T) (DNA, duplex, ^Am3dA (N6-adenosine bearing 1-aminoadamantane via C3 linker) at 6 of strand 1) CTCAGAGTAAGG/CCTTACTCTGAG
In words: UV melting. As to conditions: Na+ (150 mM NaCl, sodium phosphate); destabilisation (Tm lowered by CB[7]); duplex 2 μM, CB[7] 4 μM; 10 mM phosphate pH 7.0.

Experiment [4] deals with ODN1/ODN2 duplex (X = ^Am4dA, Y = T) (DNA, duplex, ^Am4dA (N6-adenosine bearing 1-aminoadamantane via C4 linker) at 6 of strand 1) CTCAGAGTAAGG/CCTTACTCTGAG
In words: UV melting. As to conditions: Na+ (150 mM NaCl, sodium phosphate); destabilisation (Tm lowered by CB[7]); duplex 2 μM, CB[7] 4 μM; 10 mM phosphate pH 7.0.

Experiment [5] relates to ODN3/ODN4 duplex (X = ^Am2dA, Y = T), dye-labelled (DNA, duplex, ^Am2dA (N6-adenosine bearing 1-aminoadamantane via C2 linker) at 6 of strand 1) CTCAGAGTAAGG/CCTTACTCTGAG
In words: FAM/Dabcyl fluorescence time course, kout/kin. As to conditions: Na+ (150 mM NaCl, sodium phosphate), apparent, host binds guest tethered to DNA, duplex dissociates, 10 mM phosphate pH 7.0, 37 °C.

As for `O=C1N2CN3C(=O)N4CN5C(=O)N6CN7C(=O)N8CN9C(=O)N%10CN%11C(=O)N%12CN%13C(=O)N%14CN1C1C2N2CN%15C(=O)N(CN%16C(=O)N(CN%17C(=O)N(CN%18C(=O)N(CN%19C(=O)N(CN%20C(=O)N(CN1C2=O)C%14C%13%20)C%12C%11%19)C%10C9%18)C8C7%17)C6C5%16)C4C3%15` (centres unmarked), the binding result in experiment [1] is on record as “no”. For the same compound, the shift in melting temperature (ΔTm) was determined as 20.4 °C in experiment [2], 3.6 °C in experiment [3] and 4.7 °C in experiment [4]. Besides, the Kd in experiment [5] is reported as 1.0 × 10^–9 M.
